Data from US20100311107A1, “Ultra-High Throughput Screening of Natural Products” (priority 2004, published 2010).
Read-outs that look alike come from different tables or passages of the source.

What was measured:
Format in all cases: cell-based, Escherichia coli
[1] = system: E. coli MG1655; design: unit not given here
[2] = system: PrecN′-'lacZ fusion gene in CM242; experiment: β-galactosidase activity in the presence of DNA damaging drugs
Procedure: (§1) The responses to DNA damaging agents of the screening strains described above were measured by analyzing the β-galactosidase activity in the presence of DNA damaging drugs. This method is described in detail in “A Short Course in Bacterial Genetics” 1992, ed. Miller, Cold Spring Harbor Press, pp. 72-74. The PsulA′-'lacZ fusion gene in CM191 was induced 15 fold compared to a non-induced control two hours after the addition of mitomycin C (0.5 μg/ml). In the case of CM242 which contains the PrecN′-'lacZ fusion gene, a more than 40-fold induction had been observed. Such induction was also drug-specific. In an experiment when phosphomycin (at 10 μg/ml) was used, there was no induction of the β-galactosidase activity.

[3] = system: E. coli screening strain CM400; design: unit not given here; settings: Table 13, MHB medium
Method in brief: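 MIC determined by standard broth assay in MHB liquid medium for E. coli screening strains CM400 and CM435.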

[4] = system: E. coli screening strain CM435; design: Minimal inhibitory concentrations (MIC90) CM435: unit not given here; settings: Table 13, MHB medium
[5] = system: E. coli screening strain CM166; design: unit not given here; settings: Table 9, MHB medium
Description: The level of drug resistance of CM166 was estimated by MIC assay carried out in MHB liquid medium and the results were summarized in Table 9. CM166 is resistant to antibacterial agents whose resistant genes have been incorporated into the strain, but not to other antibacterial drugs whose resistant genes are not incorporated.

[6] = system: PsulA′-'lacZ fusion gene in CM191; experiment: β-galactosidase activity in the presence of DNA damaging drugs; settings: CM191, two hours after addition, 0.5 μg/ml
Procedure: as §1

[7] = system: E. coli screening strain DR1234; design: unit not given here; settings: Table 7, MHB medium
Method in brief: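 Drug resistance of E. coli MG1655-derived strain DR1234, carrying introduced drug-resistance genes, measured by standard MIC assay in MHB liquid medium.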

[8] = system: lacZ reporter gene of the screening strains (CM191, CM242); experiment: S-Gal staining assay on solid medium; settings: screening strains on solid medium, drug-impregnated disks, PETG to suppress background
Description: The screening strains' responses to DNA damaging agents were further confirmed by S-Gal staining assay. When mitomycin C and streptonigrin (both were well-known DNA damaging drugs) and S-Gal, the indicator, were applied to the screening strains growing on solid medium, blue-colored rings were visible around colonies in drug-impregnated disks. […] Actinomycin D was an exception. CM242 was not sensitive to this drug, although it disrupts DNA structure. PETG (2-phenyethyl B-D-thiogalactoside, Sigma, St Louis Mo.), was used in this experiment to suppress unspecific background activity.

[9] = system: E. coli screening strain CM242; design: unit not given here; settings: second Table 12, MHB medium
Procedure: The level of drug resistance of these screening strains (both intermediates and finals) was evaluated by standard MIC assay in MHB liquid medium and the result of Strain CM242 is summarized in Table 12.

[10] = system: E. coli screening strain DR1212; design: unit not given here; settings: Table 11, MHB medium
Procedure: The level of drug-resistance of screening strain DR1212 was analyzed by standard MIC assay in MHB liquid medium and the result was summarized in Table 11. Similar to screening strains, DR1234 and CM166, DR1212 is also resistant to drugs whose resistant genes have been introduced.

Row | SMILES | Minimal inhibitory concentrations (MIC90) MG1655 ([1]; Table 13, MHB medium) | induction of the β-galactosidase activity ([2]; at 10 μg/ml, strain not specified) | Minimal inhibitory concentrations (MIC90) CM400 [3] | Minimal inhibitory concentrations (MIC90) CM435 [4] | Minimal inhibitory concentrations (MIC90) MG1655 [1] | Minimal inhibitory concentrations (MIC90) CM166 [5] | induction of PsulA′-'lacZ fusion gene compared to a non-induced control [6] [fold] | induction of PrecN′-'lacZ fusion gene ([2]; CM242, 0.5 μg/ml) | Minimal inhibitory concentrations (MIC90) DR1234 [7] | lacZ reporter gene expression (S-Gal, blue-colored rings) [8] | Minimal inhibitory concentrations (MIC90) CM242 [9] | Minimal inhibitory concentrations (MIC90) DR1212 [10]
1 | C[C@@H]1O[C@@H]1P(=O)(O)O [Phosphomycin] | 32 | no induction | 8 | 64 |  |  |  |  |  |  |  | 
2 | CO[C@@]12[C@H](COC(N)=O)C3=C(C(=O)C(C)=C(N)C3=O)N1C[C@@H]1N[C@@H]12 [Mitomycin C] |  |  |  |  | 0.8 | 3.2 | 15 | more than 40 fold | 3.2 | induced | 3.2 | <0.4
